Experimental findings from ChEMBL document CHEMBL1131211, “Cyclopropane-derived peptidomimetics. Design, synthesis, evaluation, and structure of novel HIV-1 protease inhibitors” (J Med Chem, 1998) are described below.

A word on the Ki: it is a measure of affinity in units of concentration, obtained from inhibition or displacement. The low end stands for higher affinity, the high end for lower affinity.

The assay concerns the target Human immunodeficiency virus type 1 protease (Human immunodeficiency virus 1, UniProt Q72874). The assay is described as follows: Inhibitory activity was measured against wild-type HIV-1 protease.
`CN(Cc1ccccn1)C(=O)[C@H]1[C@H](C(=O)N[C@@H](Cc2ccccc2)[C@@H](O)[C@H](O)[C@H](Cc2ccccc2)NC(=O)[C@H]2[C@H](C(=O)N(C)Cc3ccccn3)C2(C)C)C1(C)C` yielded a Ki of 80000 pM.
The value for `CC1(C)[C@@H](C(=O)NCc2ccccc2)[C@@H]1C(=O)N[C@@H](Cc1ccccc1)[C@@H](O)[C@H](O)[C@H](Cc1ccccc1)NC(=O)[C@H]1[C@H](C(=O)NCc2ccccc2)C1(C)C` was 310 pM.
`CC(C)[C@H](NC(=O)N(C)Cc1ccccn1)C(=O)N[C@@H](Cc1ccccc1)[C@@H](O)[C@H](O)[C@H](Cc1ccccc1)NC(=O)[C@@H](NC(=O)N(C)Cc1ccccn1)C(C)C` registered a Ki of 110 pM.
In the case of `C[C@H]1[C@@H](C(=O)NCc2ccccc2)[C@@H]1C(=O)N[C@@H](Cc1ccccc1)[C@@H](O)[C@H](O)[C@H](Cc1ccccc1)NC(=O)[C@@H]1[C@@H](C)[C@H]1C(=O)NCc1ccccc1`, the Ki amounted to 160 pM.
As to `C[C@@H]1[C@@H](C(=O)NCc2ccccc2)[C@@H]1C(=O)N[C@@H](Cc1ccccc1)[C@@H](O)[C@H](O)[C@H](Cc1ccccc1)NC(=O)[C@@H]1[C@H](C)[C@H]1C(=O)NCc1ccccc1`, the affinity, expressed as Ki, was 470 pM.
